The values that follow come from ChEMBL document CHEMBL1151678, “Halicylindramides D and E, antifungal peptides from the marine sponge Halichondria cylindrata” (J Nat Prod, 1996).

The source made the active and inactive calls. The calls are words filed in the database; no cut-off is given here.

Assay [1] concerns Umbelopsis ramanniana. As to the kind of experiment: Antifungal activity against Mortierella ramanniana at 160 ug/disk. It is filed as functional, organism-based.
Assay [2] has as its system P388. As to the kind of experiment: Cytotoxicity against mouse P388 cells at 5 ug/mL. The class given is functional, cell-based.
Assay [3] relates to Umbelopsis ramanniana. As to the kind of experiment: Antifungal activity against Mortierella ramanniana at 5 ug/disk. It is filed as functional, organism-based.
The subject of assay [4] is P388. As to the kind of experiment: Cytotoxicity against mouse P388 cells. It is filed as functional, cell-based.

For `CC(C)[C@@H](NC(=O)[C@@H]1CCCN1C(=O)[C@H](Cc1ccc(Br)cc1)NC(=O)[C@@H](C)NC=O)C(=O)N[C@H](C(=O)N[C@H](Cc1c[nH]c2ccccc12)C(=O)N[C@@H](CCCNC(=N)N)C(=O)N[C@H](CS(=O)(=O)O)C(=O)N[C@H](C(=O)N(C)[C@@H](CCC(N)=O)C(=O)N[C@H](Cc1ccccc1)C(N)=O)[C@@H](C)O)C(C)(C)C`, the outcome with Umbelopsis ramanniana [1] was Active. In addition, the outcome with P388 [2] was inactive.

As usually defined, the IC50 is the concentration at which inhibition is half-maximal. A high value points to weaker potency. Turning to `CC(C)[C@H](NC(=O)[C@H](NC(=O)[C@@H]1CCCN1C(=O)[C@H](Cc1ccc(Br)cc1)NC(=O)[C@@H](C)NC=O)C(C)C)C(=O)N[C@H](Cc1c[nH]c2ccccc12)C(=O)N[C@@H](CCCNC(=N)N)C(=O)N[C@H](CS(=O)(=O)[O-])C(=O)N[C@@H]1C(=O)N(C)[C@@H](CCC(N)=O)C(=O)N[C@H](Cc2ccccc2)C(=O)NCC(=O)N[C@H](CC(N)=O)C(=O)O[C@@H]1C.[Na+]` [HALICYLINDRAMIDE D], in the assay with Umbelopsis ramanniana [3], the result was Active. The compound further registered an IC50 in the assay on P388 [4] of 2.1 µg/mL.
